Laboratory results published in US10827753B2, “Compositions and methods for controlling nematodes” (Monsanto Technology LLC, priority 2007, dated 2020).
Marks after values point to notes of the source that are not given here.

Legend:
[1] = test system: soybean cyst nematode (SCN); test: SCN greenhouse sand assay on soybean plants; type: in vivo, Heterodera glycines
Excerpt: Soybeans seeds are planted in 100% sand in two inch square plastic pots.
Chemical treatment is done when the soybeans show the first trifoliate beginning to emerge about 10 to 12 days after planting. At least four hours after chemical application the nematode soybean cyst nematode (SCN) eggs are applied and 28 days after the egg inoculation the test is harvested.
One milligram of chemistry per four pots is equal to one kilogram per hectare of chemical. A standard test uses four replications. For rates above 2 kg/ha, the desired amount of chemical is weighed into a 30 ml vial (example: 8 kg/ha rate=8 mg chemical in 30 ml vial). The chemical is dissolved in 2 ml of appropriate solvent, generally acetone. For rates below 2 kg/ha, 2 milligrams of chemistry is weighed into the vial and dissolved in 2 ml of the solvent. The appropriate amount of chemical concentrate is then pipetted into a separate 30 ml vial and solvent is added to bring the volume to 2 ml (example 0.5 kg/ha=0.5 ml of concentrate+1.5 ml solvent). Each dissolved concentrate is then brought to a total of 20 milliliters using 0.05% Triton X 100 surfactant solution.
Pots to be treated are moist but not saturated. To each of four pots, five milliliters of the appropriate chemical solution is pipetted to the media surface making sure to avoid contact with the base of the plant. Immediately following chemical application, using a mist nozzle, the pot surface is wetted sufficiently to saturate the pot watering in the chemistry. The chemical application is done in the morning.
Nematode eggs, either SCN or RKN, are added to distilled water to create a concentration of 1000 vermiform eggs […]. At least four hours after chemical treatment the eggs are applied to the treated pots plus non-treated check plants. A small hole about 1 cm deep is punched into the pot surface. One milliliter of the nematode egg slurry is pipetted into the hole. Immediately afterwards the hole is gently covered. Watering of the test plants is then restricted to only water as needed to prevent wilt for a period of 24 hours. After the 24 hour restricted watering, normal sub-irrigation watering is done for the duration of the test.

[2] = test system: Meloidogyne incognita; test: Fall nematicidal field testing on squash microplots; type: in vivo; settings: for control of root galling compared with oxamyl at an equivalent rate: 2 kg/ha
Excerpt: The test site was located at 3511 Highway F in New Melle, Mo., Saint Charles county. The soil was a native prairie/pasture covering silty clay loam soil. Holes were dug using a Bobcat 763 skid loader with a 12-inch auger to a depth of 18 inches. Total volume of each hole was about 1.2 cubic feet. Six cubic yards of topsoil and 9 tons of river sand were purchased from Dardenne Farms Topsoil. Mixing to a ratio of 4 volumes sand to 1 volume soil was accomplished using a trailer-mounted 9 cubic foot concrete mixer. Holes were filled and then re-filled 5 days later after settling. The mixture was 92.5% sand, 2.5% silt, and 5% clay. Organic matter was 0.2% and pH was 6.8.
Treatments were arranged in a block design with the blocks laid out perpendicular to the primary slope and parallel to secondary slope. There are 7 inoculated controls and 5 non-inoculated controls and the distributions of disease severity appeared independent of location.
Application rates are expressed as kg of active material per hectare, and the mg per plot is based on the surface area of the bored and filled holes (0.000008559 Ha). The DC compounds were formulated immediately before application as follows: 1) the amount required to treat all six replicates was dissolved in 300 ml of acetone, 2) for each plot 50 ml of that solution was added to a graduated cylinder with 2 ml of 12.5% Triton X100 and the volume was raised to 500 ml with tap water. The resultant mix is the same as used in the standard greenhouse assays (10% acetone, 0.05%×100). The oxamyl treatments were prepared from Vydate 2 L formulated the same way. The 500 ml was placed in a watering can and the entire volume was evenly sprinkled over the surface of the plot. No runoff occurred and pooling, if any, was short lived. The final drench volume was 0.58 ml/cm^2, compared to 0.2 ml/cm^2 used in our greenhouse, however the microplots are much deeper so the drench volume applied per soil volume treated is roughly the same.
Meloidogyne incognita eggs were harvested over a two week period and stored at approximately 5° C. until needed. A stock of 5.6 million vermiform eggs was adjusted to 9000/ml in 620 ml. One day after treatment, two holes were made in each plot about 7 cm apart and equidistant from the squash plants. Five ml of egg suspension was pipetted into each hole, which was then sealed and the plot lightly watered. A total of 90,000 vermiform eggs were added to each plot.
The first root evaluation was at 28 DAT. The tops were cut off and weighed immediately in the field, and the roots were carefully dug out so as not to disturb the remaining plant.

SMILES | percent control (cyst number reduction) relative to the control blank treatment ([1]; 0.1 kg/ha, test d) | percent control (cyst number reduction) relative to the control blank treatment ([1]; 0.25 kg/ha, test d) | percent control (cyst number reduction) relative to the control blank treatment ([1]; 1 kg/ha, test a) | percent control (cyst number reduction) relative to the control blank treatment ([1]; 1 kg/ha, test b) | percent control (cyst number reduction) relative to the control blank treatment ([1]; 1 kg/ha, test c) | RG28 = % root galls at 28 days after treatment ([2]; 2 kg ai/ha drench, squash) | RG43 = % root galls at 43 days after treatment ([2]; 2 kg ai/ha drench, squash) | control of root galling compared with oxamyl at an equivalent rate ([2]; 28 day time point) | control of root galling compared with oxamyl at an equivalent rate ([2]; 43 day time point)
CCOP(=O)(NC(C)C)Oc1ccc(SC)c(C)c1 (stereo not drawn) [Fenamiphos, fenamiphos, reference compound] | 5^d percent | 26^d percent | 98^a percent | 98^b percent | 94^c percent | – | – | – | –
Brc1ccc(-c2cnc(-c3cccs3)o2)cc1 [compound 4776] | – | – | – | – | – | 19.0% | 26.8% | statistically better than oxamyl | statistically better than oxamyl
